Laboratory results from the NIST ThermoML archive (doi:10.1016/j.jct.2007.11.010).
± gives the expanded uncertainty stated by the source.

Test: xn = mol fraction of the nth substance listed
Settings: 101 kPa, Liquid

OCCN1CCOCC1 [4-morpholineethanol] + CCCO
mass density [kg/m3]
Settings	293.15 K	298.15 K	303.15 K	313.15 K	323.15 K
x1 = 0.0441	830.17 ± 0.82	823.23 ± 0.84	815.35 ± 0.86	807.23 ± 0.89	799.06 ± 0.91
x1 = 0.1025	854.6 ± 0.7	847.85 ± 0.77	839.76 ± 0.79	831.61 ± 0.82	823.54 ± 0.84
x1 = 0.1771	883.51 ± 0.67	877.01 ± 0.69	868.66 ± 0.71	860.49 ± 0.74	852.56 ± 0.76
x1 = 0.2366	905.01 ± 0.61	898.71 ± 0.63	890.18 ± 0.66	882 ± 1	874.19 ± 0.7
x1 = 0.2772	919.15 ± 0.58	912.99 ± 0.6	904.34 ± 0.62	896.16 ± 0.64	888.43 ± 0.67
x1 = 0.3146	931.56 ± 0.55	925.53 ± 0.56	916.77 ± 0.59	908.59 ± 0.61	900.94 ± 0.64
x1 = 0.3771	951.28 ± 0.5	945.46 ± 0.52	936.54 ± 0.54	928.37 ± 0.56	920.85 ± 0.59
x1 = 0.4165	962.97 ± 0.47	957.29 ± 0.49	948.27 ± 0.51	940.11 ± 0.54	932.69 ± 0.56
x1 = 0.478	980.28 ± 0.43	974.81 ± 0.45	965.64 ± 0.48	957.51 ± 0.5	950.23 ± 0.52
x1 = 0.5135	989.72 ± 0.41	984.38 ± 0.43	975.14 ± 0.45	967.02 ± 0.47	959.82 ± 0.49
x1 = 0.5792	1006.06 ± 0.4	1000.96 ± 0.39	991.58 ± 0.41	983.5 ± 0.4	976.47 ± 0.45
x1 = 0.632	1018.06 ± 0.45	1013.14 ± 0.43	1003.67 ± 0.4	995.64 ± 0.4	988.74 ± 0.42
x1 = 0.6797	1028.12 ± 0.49	1023.38 ± 0.47	1013.83 ± 0.44	1005.84 ± 0.41	999.07 ± 0.4
x1 = 0.7337	1038.68 ± 0.53	1034.12 ± 0.52	1024.5 ± 0.5	1016.57 ± 0.46	1009.94 ± 0.43
x1 = 0.7753	1046.19 ± 0.56	1041.78 ± 0.55	1032.12 ± 0.52	1024.22 ± 0.49	1017.71 ± 0.47
x1 = 0.8136	1052.76 ± 0.59	1048.48 ± 0.58	1038.78 ± 0.55	1030.93 ± 0.52	1024.51 ± 0.5
x1 = 0.8739	1062.19 ± 0.64	1058.11 ± 0.62	1048.36 ± 0.59	1040.58 ± 0.56	1034.34 ± 0.54
x1 = 0.9145	1067.81 ± 0.67	1063.88 ± 0.65	1054.1 ± 0.6	1046.38 ± 0.59	1040.25 ± 0.57
x1 = 0.9442	1071.98 ± 0.69	1068.14 ± 0.67	1058.34 ± 0.64	1050.66 ± 0.61	1044.61 ± 0.59
x1 = 0.9742	1076.35 ± 0.71	1072.61 ± 0.7	1062.79 ± 0.66	1055.14 ± 0.63	1049.16 ± 0.61

OCCN1CCOCC1 [4-morpholineethanol] + CCO
mass density [kg/m3]
Settings	293.15 K	298.15 K	303.15 K	313.15 K	323.15 K
x1 = 0.0543	820.46 ± 0.85	817.03 ± 0.86	812.82 ± 0.87	804.96 ± 0.89	794.75 ± 0.93
x1 = 0.1127	851.58 ± 0.76	847.96 ± 0.77	843.64 ± 0.78	835.77 ± 0.81	824.13 ± 0.84
x1 = 0.1873	886.91 ± 0.66	883.05 ± 0.67	878.64 ± 0.69	870.75 ± 0.71	857.23 ± 0.75
x1 = 0.2468	911.75 ± 0.6	907.72 ± 0.61	903.24 ± 0.62	895.37 ± 0.64	880.63 ± 0.69
x1 = 0.2874	927.58 ± 0.56	923.45 ± 0.57	918.93 ± 0.58	911.07 ± 0.6	–
x1 = 0.3248	941.14 ± 0.52	936.91 ± 0.53	932.36 ± 0.55	924.52 ± 0.57	–
x1 = 0.3873	961.89 ± 0.47	957.52 ± 0.48	952.92 ± 0.5	945.11 ± 0.52	927.56 ± 0.57
x1 = 0.4267	973.69 ± 0.44	969.23 ± 0.46	964.6 ± 0.5	956.83 ± 0.49	938.98 ± 0.54
x1 = 0.4882	990.98 ± 0.41	986.4 ± 0.4	981.73 ± 0.43	974 ± 1	955.56 ± 0.5
x1 = 0.5237	1000.12 ± 0.38	995.47 ± 0.39	990.79 ± 0.41	983.09 ± 0.43	964.48 ± 0.48
x1 = 0.5894	1015.56 ± 0.44	1010.8 ± 0.4	1006.1 ± 0.4	998.46 ± 0.39	–
x1 = 0.6422	1026.73 ± 0.48	1021.89 ± 0.46	1017.17 ± 0.45	1009.59 ± 0.42	–
x1 = 0.6899	1035.93 ± 0.51	1031.02 ± 0.5	1026.29 ± 0.48	1018.76 ± 0.46	1001.11 ± 0.4
x1 = 0.7439	1045.49 ± 0.56	1040.52 ± 0.54	1035.78 ± 0.52	1028.31 ± 0.5	1011.45 ± 0.44
x1 = 0.7855	1051.94 ± 0.59	1046.91 ± 0.57	1042.18 ± 0.55	1034.76 ± 0.53	1018.98 ± 0.47
x1 = 0.8238	1057.63 ± 0.61	1052.57 ± 0.59	1047.83 ± 0.58	1040.46 ± 0.55	1025.59 ± 0.5
x1 = 0.8841	1065.21 ± 0.65	1060.1 ± 0.6	1055.37 ± 0.62	1048.08 ± 0.59	1035.44 ± 0.55
x1 = 0.9247	1069.51 ± 0.67	1064.37 ± 0.66	1059.65 ± 0.64	1052.42 ± 0.61	1041.71 ± 0.58
x1 = 0.9544	1072.49 ± 0.69	1067.33 ± 0.67	1062.62 ± 0.66	1055.43 ± 0.63	1046.13 ± 0.6
x1 = 0.9844	1075.58 ± 0.71	1070.4 ± 0.7	1065.69 ± 0.67	1058.55 ± 0.65	1050.45 ± 0.62
